Measurements taken from article PMC6225126, “Inhibitory Effects of Bioassay-Guided Isolation of Anti-Glycation Components from Taraxacum coreanum and Simultaneous Quantification” (Molecules : A Journal of Synthetic Chemistry and Natural …, 2018).
In brackets after ≈: the same amount, converted by molar mass. Read-outs that look alike come from different tables or passages of the source.

Tests used:
[1] = system: advanced glycation end-product (AGE) formation in BSA/glucose system; assay: Inhibition of AGE formation in BSA-glucose system (fluorescence); format: biochemical, bovine
Description: Inhibition of AGE formation in BSA-glucose system was determined using the spectrophotometric method described previously. All test samples were dissolved in 10% DMSO. […] This mixture was incubated at 60 °C for 2 days. […] We used AG as a positive control. Three replicate samples were run for each set. The inhibitory activity on AGE formation was calculated using the following formula: {(Ac − As)/Ac} × 100, where Ac is fluorescence of the control, and As is the fluorescence of the sample.

[2] = system: advanced glycation end-product (AGE) formation in BSA/MGO system; assay: Inhibition of AGE formation in BSA-MGO system (fluorescence); format: biochemical, bovine; conditions: BSA 1 mg/mL, 7 mM MGO, 60 °C, 2 days, mean ± SD, n = 3; for IC50: isolated compounds
Description: The inhibitory effect on protein glycation induced by MGO (40% aqueous solution) and the main reactive intermediate compound formed in Maillard reaction were evaluated. All test samples were dissolved in 10% DMSO. […] This mixture was incubated at 60 °C for 2 days. […] We used AG as a positive control. Three replicate samples were run for each set. The inhibitory activity was calculated using the same equation applied in BSA-glucose assay.

[3] = molecular target: T1, α-glucosidase from Saccharomyces cerevisiae (Saccharomyces cerevisiae, UniProt P53341); assay: biochemical; format: biochemical
T1 construct: purchased Sigma-Aldrich Chemical Company (St. Louis, MO, USA)
Description: Methanol (MeOH), ethanol (EtOH), Hx, DCM, EA, BuOH, and distilled water were used for extraction, fractionation, and open column chromatography. Sephadex LH-20 (25–100 μm; Pharmacia, Stockolm, Sweden), MCI CHP 20P (Supelco, St. Louis, MO, USA), and ODS gel (400–500 mesh; Waters, Milford, MA, USA) were used for open column chromatography. Dimethyl sulfoxide-d6 (DMSO-d6) and methanol-d4 (CD3OD) were used as solvents for NMR analysis. Molecular weight was determined by using ultrahigh performance liquid chromatography and high-resolution mass spectrometry (UHPLC-HRMS) coupled with electrospray ionization hybrid linear trap-quadruple-Orbitrap MS (ESI/LTQ-Orbitrap) using an Ultimate 3000 RSLC (Thermo, Darmstadt, Germany). ^1H-nuclear magnetic resonance (NMR) spectra were recorded at 600 MHz and ^13C-NMR spectra were recorded at 150 MHz on a JEOL spectrometer. The chemical shifts are expressed in parts per million (ppm) on the δ scale and as coupling constants (J) in Hertz. […] A Waters Kromasil C18 (4.6 × 250 mm, 5 μm) column was used as the separation column. HPLC-grade solvents, such as MeOH and distilled water (H2O), were purchased from J. T. Baker® (Phillipsburg, PA, USA). HPLC-grade phosphoric acid was obtained from DEAJUNG Chemical (Siheung, Gyeonggi, Korea).
This assay was performed using a 96-well microplate reader and a spectrophotometer. […] A chromogenic substance was used for quantification purposes. After the addition of mixture solution to each well, 10 mM phosphate buffer (20 µL, pH 6.8) containing 0.2 U/mL α-glucosidase was added. This mixture was incubated at 37 °C for 15 min. The reaction was stopped by adding 80 µL of 0.2 mol/L sodium carbonate solution. […] Three replicate samples were run for each set. The inhibitory activity was calculated using the equation applied in BSA-glucose assay, but absorbance was measured instead of fluorescence.

[4] = isolated compounds, BSA 10 mg/mL, 0.4 M D-fructose and D-glucose, 60 °C, 2 days, mean ± SD, n = 3, read-out: IC50 BSA/Glucose (AGE formation)
[5] = isolated compounds, 2.5 mM p-NPG, pH 6.8, 37 °C, 15 min, mean ± SD, n = 3, read-out: IC50 α-Glucosidase
[6] = isolated compounds, read-out: IC50 α-glucosidase activity
[7] = isolated compounds, 2.5 mM p-NPG, pH 6.8, 37 °C, 15 min, mean ± SD, n = 3

T1 sequence (P53341 whole entry): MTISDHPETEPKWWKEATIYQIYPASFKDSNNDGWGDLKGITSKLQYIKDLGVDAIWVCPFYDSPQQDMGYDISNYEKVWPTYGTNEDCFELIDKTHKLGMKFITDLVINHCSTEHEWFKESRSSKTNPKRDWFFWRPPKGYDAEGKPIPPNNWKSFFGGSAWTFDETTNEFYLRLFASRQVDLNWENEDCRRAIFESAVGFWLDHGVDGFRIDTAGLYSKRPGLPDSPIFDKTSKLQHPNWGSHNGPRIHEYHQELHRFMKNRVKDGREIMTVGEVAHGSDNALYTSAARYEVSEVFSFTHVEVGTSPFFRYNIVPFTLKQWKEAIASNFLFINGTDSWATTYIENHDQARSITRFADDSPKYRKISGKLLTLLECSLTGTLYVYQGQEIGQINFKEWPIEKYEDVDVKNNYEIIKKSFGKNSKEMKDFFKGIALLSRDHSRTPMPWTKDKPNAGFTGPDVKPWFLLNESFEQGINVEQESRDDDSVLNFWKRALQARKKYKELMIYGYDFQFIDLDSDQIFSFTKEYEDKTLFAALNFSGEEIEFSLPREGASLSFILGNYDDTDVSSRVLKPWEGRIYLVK

chicoric acid [Compound 11]
IC50 [1, 4]: 64.7 ± 16.7 µM | IC50 [2]: 141 ± 8.76 µM

1-caffeoylglycerol [Compound 8]
IC50 [1, 4]: 307 ± 10.2 µM | IC50 [2]: 152 ± 65.4 µM | IC50 [3, 5]: 2951 ± 3.94 µM | IC50 [3, 6]: 2951 ± 3.94 µM

O=c1cc(-c2ccc(OC3OC(CO)C(O)C(O)C3O)c(O)c2)oc2cc(O)cc(O)c12 (stereo not drawn) [Compound 3, luteolin-4′-glucoside]
IC50 ([1]; compound 3, unit as printed in running text b17, read-out: IC50 AGE formation in BSA-glucose system): 423 ± 18 µM | IC50 [1, 4]: 423 ± 18 µM | IC50 [2]: 90.8 ± 21.7 µM | IC50 [3, 6]: 598 ± 147 µM

O=C(/C=C/c1ccc(O)c(O)c1)O[C@@H]1C[C@](O)(C(=O)O)C[C@@H](O)[C@H]1O [Compound 10, chlorogenic acid]
IC50 [2]: 138 ± 1.91 µM

O=c1cc(-c2ccc(O)c(O)c2)oc2cc(OC3OC(CO)C(O)C(O)C3O)cc(O)c12 (stereo not drawn) [Compound 2, luteolin-7-glucoside]
IC50 [1, 4]: 123 ± 2.02 µM | IC50 [2]: 108 ± 8.14 µM | IC50 [3]: 1460 ± 162 µM

N=C(N)NN [AMG, aminoguanidine, reference compound]
IC50 BSA/Glucose (AGE formation) ([1]; extracts and fractions, BSA 10 mg/mL, 0.4 M D-fructose and D-glucose, 60 °C, 2 days, mean ± SD, n = 3): 218.57 ± 24.38 µg/mL (≈ 2950 µM) | IC50 [1, 4]: 602 ± 50.4 µM | IC50 BSA/MGO (AGE formation) ([2]; extracts and fractions): 67.51 ± 5.27 µg/mL (≈ 911 µM) | IC50 [2]: 295 ± 42.7 µM

CC1OC(OCC2OC(Oc3cc(O)c4c(=O)cc(-c5ccc(O)c(O)c5)oc4c3)C(O)C(O)C2O)C(O)C(O)C1O (stereo not drawn) [Compound 4, luteolin-7-rutinoside]
IC50 [1, 4]: 253 µM | IC50 [2]: 136 ± 2.64 µM | IC50 [3, 6]: 671 ± 50.8 µM

O=c1cc(-c2ccc(O)c(O)c2)oc2cc(O)cc(O)c12 [Compound 1, luteolin]
IC50 [1, 4]: 236 ± 9.11 µM | IC50 [2]: 66.1 ± 17.1 µM | IC50 α-Glucosidase [3, 7]: no inhibitory activity

O=C(O)/C=C/c1ccc(O)c(O)c1 [Compound 7, caffeic acid]
IC50 [1, 4]: 324 ± 8.29 µM | IC50 [2]: 79.7 ± 23.4 µM | IC50 [3, 5]: 5130 ± 804 µM

O=c1cc(-c2cc(O)c(O)cc2OC2OCC(O)C(O)C2O)oc2cc(OC3OC(CO)C(O)C(O)C3O)cc(O)c12 (stereo not drawn) [Compound 6, isoetin-7-glucoside-2′-arabinoside]
IC50 [1, 4]: 238 ± 13.8 µM | IC50 [2]: 148 ± 36.3 µM | IC50 α-Glucosidase [3, 7]: no inhibitory activity

O=c1cc(-c2cc(O)c(O)cc2OC2OCC(O)C(O)C2O)oc2cc(OC3OC(CO)C(O)C(O)C3O)cc(O)c12 (stereo not drawn) [Compound 5, isoetin-7-glucoside-2′-xyloside]
IC50 [1, 4]: 268 ± 3.41 µM | IC50 [2]: 130 ± 28.3 µM | IC50 α-Glucosidase [3, 7]: no inhibitory activity
